From patent publication US10105357B2, “Indication of antibiotic drugs for preparation of cancer inhibition pharmaceutical composition” (LAUNX BIOMEDICAL CO., LTD., priority 2014, dated 2018)
Where two headings read alike, the source gives them in different places.

What was measured:
[1] = system: TSGH-8301 (Urinary Bladder Carcinoma); test: Cell viability analysis, bladder cancer TSGH-8301; assay type: cell-based, human; conditions: for viability at 10 µM: Homo sapiens, 72 h
[2] = system: 786-O (Renal adenocarcinoma); test: Cell viability analysis, renal cancer 786-O; assay type: cell-based, human; conditions: 786-O, repeated experiment
[3] = system: SAS (Tongue squamous cell carcinoma); test: Cell viability analysis, tongue cancer SAS; assay type: cell-based, human; conditions: SAS, repeated experiment
[4] = system: LoVo (Colorectal Adenocarcinoma); test: Cell viability analysis, colon cancer LoVo; assay type: cell-based, human; conditions: LoVo, repeated experiment
[5] = system: MDA-MB-231 (Mammary Gland, Adenocarcinoma); test: Cell viability analysis, breast cancer MDA-MB-231; assay type: cell-based, human; conditions: MDA-MB231, repeated experiment
[6] = system: HeLa (Cervix Adenocarcinoma); test: Cell viability analysis, cervical cancer HeLa; assay type: cell-based, human; conditions: Homo sapiens, HeLa, 72 h, HeLa; repeated experiment; read-out: The results of antibiotic drug inhibiting cancer cell lines (cell viability analysis), HeLa
[7] = system: MKN-45 (Gastric Adenocarcinoma); test: Cell viability analysis, gastric cancer MKN-45; assay type: cell-based, human; conditions: for viability at 10 µM: Homo sapiens, MKN-45, 72 h
[8] = system: HepG2 (Hepatocellular Carcinoma); test: Cell viability analysis, hepatic cancer HepG2; assay type: cell-based, human; conditions: for viability at 10 µM: Homo sapiens, HepG2, 72 h
cancer cell lines = test: Cell viability analysis (WST-1) on cancer cell lines; assay type: cell-based, human; conditions: drug 10 μM, 72 hours, WST-1; Table 3
TOV-21G = test: Cell viability analysis, ovarian cancer TOV-21G; assay type: cell-based, human; conditions: TOV-21G, repeated experiment
[9] = system: PC3 (p53−) (Prostate Adenocarcinoma); test: Cell viability analysis, prostate cancer PC3; assay type: cell-based, human; conditions: for viability at 10 µM: Homo sapiens, 72 h
U-2OS = test: Cell viability analysis, osteosarcoma U-2OS; assay type: cell-based, human; conditions: U2OS, repeated experiment
[10] = system: HL-60 (Acute Promyelocytic Leukemia); test: Cell viability analysis, leukemia HL-60; assay type: cell-based, human; conditions: Homo sapiens, HL-60, 72 h, drug 10 μM, 72 hours, WST-1, OD450 nm; read-out: cell viability (survival rate), HL-60
AsPC-1 = test: Cell viability analysis, pancreatic cancer AsPC-1; assay type: cell-based, human; conditions: Homo sapiens, ASPC1, 72 h; AsPC-1; repeated experiment; read-out: The results of antibiotic drug inhibiting cancer cell lines (cell viability analysis), AsPC-1
[11] = system: A549 (Lung Adenocarcinoma); test: Cell viability analysis, lung cancer A549; assay type: cell-based, human; conditions: Homo sapiens, A549, 72 h
BxPC-3 = test: Cell viability analysis, pancreatic cancer BxPC-3; assay type: cell-based, human; conditions: Homo sapiens, 72 h; BxPC-3; repeated experiment; read-out: The results of antibiotic drug inhibiting cancer cell lines (cell viability analysis), BxPC-3
[12] = system: Hep3B (hepatocellular carcinoma); test: Cell viability analysis, hepatic cancer Hep3B; assay type: cell-based, human; conditions: Hep3B, repeated experiment
[13] = system: HI650 (Lung Adenocarcinoma); test: Cell viability analysis, lung cancer HI650; assay type: cell-based, human; conditions: Homo sapiens, NCI-H1650, 72 h
[14] = system: HCT116 (p53+) (Colorectal Carcinoma)
[15] = system: AGS (Gastric Adenocarcinoma); test: Cell viability analysis, gastric cancer AGS; assay type: cell-based, human; conditions: for viability at 10 µM: Homo sapiens, 72 h
[16] = system: MCF7 (Mammary Gland, Adenocarcinoma); test: Cell viability analysis, breast cancer MCF7; assay type: cell-based, human; conditions: for viability at 10 µM: Homo sapiens, MCF7, 72 h
[17] = system: A375 (Amelanotic Melanoma); test: Cell viability analysis, skin cancer A375; assay type: cell-based, human; conditions: Homo sapiens, A-375, 72 h
NIH: OVCAR-3 = test: Cell viability analysis, ovarian cancer NIH: OVCAR-3; assay type: cell-based, human; conditions: NIH-OVCAR-3, repeated experiment
[18] = system: BCC (basal cell carcinoma); test: Cell viability analysis, skin cancer BCC; assay type: cell-based, human; conditions: BCC, repeated experiment
T24 = test: Cell viability analysis, bladder cancer T24; assay type: cell-based, human; conditions: T24, repeated experiment
[19] = system: C-33A (Cervical carcinoma); test: Cell viability analysis, cervical cancer C-33A; assay type: cell-based, human; conditions: C-33A; repeated experiment

`CC(C)c1nc(N(C)S(C)(=O)=O)nc(-c2ccc(F)cc2)c1/C=C/[C@@H](O)C[C@@H](O)CC(=O)O` [Rosuvastatin calcium (Crestor), Rosuvastatin calcium] showed a viability at 10 µM ([1]; TSGH-8301, repeated experiment, read-out: The results of antibiotic drug inhibiting cancer cell lines (cell viability analysis), TSGH-8301) of 113%, a viability at 10 µM ([1]; drug 10 μM, 72 hours, WST-1, OD450 nm, read-out: cell viability (survival rate), TSGH) of 56% and a viability at 10 µM ([2]; Homo sapiens, 786-0, 72 h, read-out: The results of antibiotic drug inhibiting cancer cell lines (cell viability analysis), 786-O) of 92.5%. The viability at 10 µM ([3]; Homo sapiens, 72 h, read-out: The results of antibiotic drug inhibiting cancer cell lines (cell viability analysis), SAS) was 93.3%, the viability at 10 µM ([4]; Homo sapiens, 72 h, read-out: The results of antibiotic drug inhibiting cancer cell lines (cell viability analysis), LoVo) was 103% and the viability at 10 µM ([5]; Homo sapiens, MDA-MB-231, 72 h, read-out: The results of antibiotic drug inhibiting cancer cell lines (cell viability analysis), MDA-MB231) was 90.2%. The viability at 10 µM [6] was 97.1%, the viability at 10 µM ([7]; MKN-45, repeated experiment, read-out: The results of antibiotic drug inhibiting cancer cell lines (cell viability analysis), MKN-45) was 110% and the viability at 10 µM ([7]; drug 10 μM, 72 hours, WST-1, OD450 nm, read-out: cell viability (survival rate), MKN-45) was 83.8%. The viability at 10 µM ([8]; HepG2, repeated experiment, read-out: The results of antibiotic drug inhibiting cancer cell lines (cell viability analysis), HepG2) was 108%, the viability at 10 µM ([8]; drug 10 μM, 72 hours, WST-1, OD450 nm, read-out: cell viability (survival rate), HepG2) was 73.7% and the “inhibition effect on different cancer cell lines” value (cancer cell lines) was “significant inhibition effect”. It also gave a viability at 10 µM (TOV-21G; Homo sapiens, TOV21G, 72 h, read-out: The results of antibiotic drug inhibiting cancer cell lines (cell viability analysis), TOV-21G) of 80.4%, a viability at 10 µM ([9]; PC-3, repeated experiment, read-out: The results of antibiotic drug inhibiting cancer cell lines (cell viability analysis), PC-3) of 95.7% and a viability at 10 µM ([9]; drug 10 μM, 72 hours, WST-1, OD450 nm, read-out: cell viability (survival rate), PC3) of 94.3%. For the same compound, the viability at 10 µM (U-2OS; Homo sapiens, 72 h, read-out: The results of antibiotic drug inhibiting cancer cell lines (cell viability analysis), U2OS) was 102%, the viability at 10 µM [10] was 81.7% and the viability at 10 µM (AsPC-1) was 80.2%. It also gave a viability at 10 µM ([11]; A549, repeated experiment, read-out: The results of antibiotic drug inhibiting cancer cell lines (cell viability analysis), A549) of 95.1%, a viability at 10 µM ([11]; drug 10 μM, 72 hours, WST-1, OD450 nm, read-out: cell viability (survival rate), A549) of 97% and a viability at 10 µM (BxPC-3) of 65.5%. The viability at 10 µM ([12]; Homo sapiens, 72 h, read-out: The results of antibiotic drug inhibiting cancer cell lines (cell viability analysis), Hep3B) was 109%, the viability at 10 µM ([13]; H1650, repeated experiment, read-out: The results of antibiotic drug inhibiting cancer cell lines (cell viability analysis), H1650) was 76.7% and the viability at 10 µM ([13]; drug 10 μM, 72 hours, WST-1, OD450 nm, read-out: cell viability (survival rate), H1650) was 80.8%. The viability [14] was 85.6%, the viability at 10 µM ([15]; AGS, repeated experiment, read-out: The results of antibiotic drug inhibiting cancer cell lines (cell viability analysis), AGS) was 104% and the viability at 10 µM ([15]; drug 10 μM, 72 hours, WST-1, OD450 nm, read-out: cell viability (survival rate), AGS) was 55.9%. For the same compound, the viability at 10 µM ([16]; MCF-7, repeated experiment, read-out: The results of antibiotic drug inhibiting cancer cell lines (cell viability analysis), MCF-7) was 85.9%, the viability at 10 µM ([16]; drug 10 μM, 72 hours, WST-1, OD450 nm, read-out: cell viability (survival rate), MCF7) was 88.9% and the viability at 10 µM ([17]; A375, repeated experiment, read-out: The results of antibiotic drug inhibiting cancer cell lines (cell viability analysis), A375) was 105%. It also gave a viability at 10 µM ([17]; drug 10 μM, 72 hours, WST-1, OD450 nm, read-out: cell viability (survival rate), A375) of 55.6%, a viability at 10 µM (NIH: OVCAR-3; Homo sapiens, 72 h, read-out: The results of antibiotic drug inhibiting cancer cell lines (cell viability analysis), NIH-OVCAR-3) of 102% and a viability at 10 µM ([18]; Homo sapiens, 72 h, read-out: The results of antibiotic drug inhibiting cancer cell lines (cell viability analysis), BCC) of 104%. It also gave a viability at 10 µM (T24; Homo sapiens, T-24, 72 h, read-out: The results of antibiotic drug inhibiting cancer cell lines (cell viability analysis), T24) of 75.9%.
For `CN[C@H](CC(C)C)C(=O)N[C@H]1C(=O)N[C@@H](CC(N)=O)C(=O)N[C@H]2C(=O)N[C@H]3C(=O)N[C@H](C(=O)N[C@H](C(=O)O)c4cc(O)cc(O)c4-c4cc3ccc4O)[C@H](O)c3ccc(c(Cl)c3)Oc3cc2cc(c3O[C@@H]2O[C@H](CO)[C@@H](O)[C@H](O)[C@H]2O[C@H]2C[C@](C)(N)[C@H](O)[C@H](C)O2)Oc2ccc(cc2Cl)[C@H]1O.Cl` [Vancomycin HCl (Vancocin)], the “The results of antibiotic drug inhibiting cancer cell lines (cell viability analysis), TSGH-8301” value ([1]; TSGH-8301, repeated experiment) was 118, the “The results of antibiotic drug inhibiting cancer cell lines (cell viability analysis), 786-O” value [2] was 102.3 and the “The results of antibiotic drug inhibiting cancer cell lines (cell viability analysis), SAS” value [3] was 102. For the same compound, the “The results of antibiotic drug inhibiting cancer cell lines (cell viability analysis), LoVo” value [4] was 101, the “The results of antibiotic drug inhibiting cancer cell lines (cell viability analysis), MDA-MB231” value [5] was 90.26 and the “The results of antibiotic drug inhibiting cancer cell lines (cell viability analysis), C-33A” value [19] was 100.6. For the same compound, the “The results of antibiotic drug inhibiting cancer cell lines (cell viability analysis), MKN-45” value ([7]; MKN-45, repeated experiment) was 116.9, the “The results of antibiotic drug inhibiting cancer cell lines (cell viability analysis), HepG2” value ([8]; HepG2, repeated experiment) was 92.06 and the “The results of antibiotic drug inhibiting cancer cell lines (cell viability analysis), TOV-21G” value (TOV-21G) was 97.4. The “The results of antibiotic drug inhibiting cancer cell lines (cell viability analysis), PC-3” value ([9]; PC-3, repeated experiment) was 104.2, the “The results of antibiotic drug inhibiting cancer cell lines (cell viability analysis), U2OS” value (U-2OS) was 62.87 and the “The results of antibiotic drug inhibiting cancer cell lines (cell viability analysis), Hep3B” value [12] was 94.6. The viability [14] was 94.8%, the “The results of antibiotic drug inhibiting cancer cell lines (cell viability analysis), AGS” value ([15]; AGS, repeated experiment) was 108.9 and the “The results of antibiotic drug inhibiting cancer cell lines (cell viability analysis), MCF-7” value ([16]; MCF-7, repeated experiment) was 91.83. For the same compound, the “The results of antibiotic drug inhibiting cancer cell lines (cell viability analysis), NIH-OVCAR-3” value (NIH: OVCAR-3) was 105.6, the “The results of antibiotic drug inhibiting cancer cell lines (cell viability analysis), BCC” value [18] was 96.78 and the “The results of antibiotic drug inhibiting cancer cell lines (cell viability analysis), T24” value (T24) was 95.32.
